Measured values: ChEMBL document CHEMBL1201862, “PubChem BioAssay data set” (2004)
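Dose response: 5 concentrations. Exposure: 48 h. Format: 96-well plates. Endpoint: linear interpolation; highest concentration if not reached. GI50 is the concentration that inhibits growth by half.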 Activity calls are given as the source filed them. No stated cut-off is given here; in the data, active = GI50 up to about 1.1 µM and inactive = higher.

Tests used:
Experiment in all cases: NCI-60 cell line screen, 48 h
CCRF-CEM = test system: CCRF-CEM
UACC-257 = test system: UACC-257
786-0 = test system: 786-0
A498 = test system: A498
NCI-H23 = test system: NCI-H23
HT-29 = test system: HT-29
SNB-75 = test system: SNB-75
TK-10 = test system: TK-10
SK-MEL-28 = test system: SK-MEL-28
SK-OV-3 = test system: SK-OV-3
KM12 = test system: KM12
RPMI-8226 = test system: RPMI-8226
ACHN = test system: ACHN
SK-MEL-5 = test system: SK-MEL-5
HCC 2998 = test system: HCC 2998
BT-549 = test system: BT-549
MOLT-4 = test system: MOLT-4
SNB-19 = test system: SNB-19
OVCAR-3 = test system: OVCAR-3
SW-620 = test system: SW-620

Measured: GI50

CC(=O)O[C@H]1C[C@@H](OC(C)=O)[C@@](C)(O)[C@@H]2[C@@H](OC(C)=O)[C@@]3(O)[C@H](/C=C(/CCl)[C@H]4O[C@H]4[C@@H](OC(C)=O)[C@@]12C)OC(=O)[C@@H]3C
inactive: CCRF-CEM 18.5 µM | UACC-257 > 25 µM | 786-0 > 25 µM | A498 > 25 µM | NCI-H23 > 25 µM | HT-29 > 25 µM | SNB-75 > 25 µM | TK-10 > 25 µM | SK-MEL-28 17.4 µM | SK-OV-3 > 25 µM | KM12 > 25 µM | RPMI-8226 9.89 µM | ACHN > 25 µM | SK-MEL-5 22.3 µM | HCC 2998 > 25 µM | BT-549 > 25 µM | MOLT-4 > 25 µM | SNB-19 > 25 µM | OVCAR-3 > 25 µM | SW-620 > 25 µM

CN(C)C(C1=C(O)C(c2ccccc2)N(c2ccccc2)C1=O)N1CCOCC1 (stereo not drawn)
inactive: CCRF-CEM > 10 µM | UACC-257 > 10 µM | 786-0 > 10 µM | A498 > 10 µM | NCI-H23 > 10 µM | HT-29 > 10 µM | SNB-75 > 10 µM | TK-10 > 10 µM | SK-MEL-28 > 10 µM | SK-OV-3 > 10 µM | KM12 > 10 µM | RPMI-8226 > 10 µM | ACHN > 10 µM | SK-MEL-5 > 10 µM | HCC 2998 > 10 µM | BT-549 > 10 µM | MOLT-4 > 10 µM | SNB-19 > 10 µM | OVCAR-3 > 10 µM | SW-620 > 10 µM

O=c1c(Cc2ccc(Cl)cc2)nnc2sc(-c3ccc(-c4ccc(Cl)cc4Cl)o3)nn12
inactive: CCRF-CEM 61.7 µM | UACC-257 > 100 µM | 786-0 48 µM | A498 41.5 µM | NCI-H23 66.5 µM | HT-29 64.1 µM | TK-10 > 100 µM | SK-MEL-28 > 100 µM | SK-OV-3 > 100 µM | KM12 76.6 µM | RPMI-8226 > 100 µM | ACHN 52 µM | SK-MEL-5 > 100 µM | HCC 2998 49.5 µM | BT-549 > 100 µM | MOLT-4 43.7 µM | SNB-19 33.3 µM | OVCAR-3 34 µM | SW-620 > 100 µM

CCCCCC(=O)OCC1(CO)C/C(=C/CC(C(C)C)C(C)C)C(=O)O1 (stereo not drawn)
inactive: CCRF-CEM 16.1 µM | UACC-257 > 75 µM | 786-0 30.8 µM | A498 > 75 µM | NCI-H23 > 75 µM | HT-29 38.6 µM | SNB-75 74 µM | TK-10 > 75 µM | SK-MEL-28 > 75 µM | SK-OV-3 > 75 µM | KM12 13.5 µM | ACHN 58.5 µM | SK-MEL-5 48.8 µM | HCC 2998 59.7 µM | BT-549 > 75 µM | SNB-19 63.1 µM | OVCAR-3 50 µM | SW-620 25.2 µM

CC(CC(=O)O)(CC(=O)O)c1ccccc1
inactive: CCRF-CEM > 100 µM | UACC-257 > 100 µM | 786-0 > 100 µM | A498 > 100 µM | NCI-H23 > 100 µM | HT-29 > 100 µM | SNB-75 > 100 µM | TK-10 > 100 µM | SK-MEL-28 > 100 µM | SK-OV-3 > 100 µM | KM12 > 100 µM | RPMI-8226 > 100 µM | ACHN > 100 µM | SK-MEL-5 > 100 µM | HCC 2998 > 100 µM | BT-549 > 100 µM | SNB-19 > 100 µM | OVCAR-3 > 100 µM | SW-620 > 100 µM

CC1=CC(=O)/C(=C/N2CCNC2=S)C(=O)O1
inactive: CCRF-CEM > 100 µM | UACC-257 > 100 µM | 786-0 > 100 µM | A498 > 100 µM | NCI-H23 > 100 µM | HT-29 > 100 µM | SNB-75 89.7 µM | TK-10 > 100 µM | SK-OV-3 > 100 µM | KM12 > 100 µM | RPMI-8226 > 100 µM | ACHN > 100 µM | SK-MEL-5 97.3 µM | HCC 2998 > 100 µM | BT-549 > 100 µM | MOLT-4 > 100 µM | SNB-19 > 100 µM | SW-620 > 100 µM

O=C(Nc1ccccc1)OC1OC(COC(=O)c2ccccc2)C(OC(=O)c2ccccc2)C1OS(=O)(=O)c1ccc([N+](=O)[O-])cc1 (stereo not drawn)
inactive: CCRF-CEM > 100 µM | UACC-257 > 100 µM | 786-0 > 100 µM | A498 > 100 µM | NCI-H23 > 100 µM | HT-29 > 100 µM | TK-10 > 100 µM | SK-MEL-28 > 100 µM | SK-OV-3 > 100 µM | KM12 > 100 µM | RPMI-8226 > 100 µM | ACHN > 100 µM | SK-MEL-5 > 100 µM | HCC 2998 > 100 µM | BT-549 > 100 µM | MOLT-4 > 100 µM | SNB-19 > 100 µM | OVCAR-3 74.6 µM | SW-620 > 100 µM

O=C1CCCC[C@H]1C(O)CC1CC(=O)N(c2ccccc2)C(=O)C1 (stereo partly drawn)
inactive: CCRF-CEM > 100 µM | UACC-257 > 100 µM | 786-0 > 100 µM | A498 > 100 µM | NCI-H23 > 100 µM | HT-29 > 100 µM | SNB-75 > 100 µM | TK-10 > 100 µM | SK-MEL-28 > 100 µM | KM12 > 100 µM | RPMI-8226 > 100 µM | ACHN > 100 µM | SK-MEL-5 > 100 µM | HCC 2998 > 100 µM | BT-549 > 100 µM | MOLT-4 > 100 µM | SNB-19 > 100 µM | OVCAR-3 > 100 µM | SW-620 > 100 µM

COc1ccc(N2C(=O)/C(=C\c3cccc(Oc4ccccc4)c3)SC2c2ccccc2)cc1 (stereo not drawn)
inactive: CCRF-CEM 5.3 µM | UACC-257 38.7 µM | 786-0 > 100 µM | A498 > 100 µM | NCI-H23 41.7 µM | TK-10 > 100 µM | SK-MEL-28 38.1 µM | SK-OV-3 80.9 µM | KM12 45 µM | RPMI-8226 21.2 µM | ACHN > 100 µM | SK-MEL-5 27.9 µM | HCC 2998 > 100 µM | BT-549 25.3 µM | MOLT-4 26.7 µM | SNB-19 24.2 µM | OVCAR-3 33.9 µM | SW-620 32.9 µM

CCOC(=O)/C(C(C)=O)=C(\OC(C)=O)c1ccncc1C(=O)O
inactive: CCRF-CEM > 100 µM | UACC-257 > 100 µM | 786-0 > 100 µM | A498 > 100 µM | NCI-H23 > 100 µM | HT-29 > 100 µM | SNB-75 > 100 µM | SK-MEL-28 > 100 µM | SK-OV-3 > 100 µM | KM12 > 100 µM | RPMI-8226 > 100 µM | ACHN > 100 µM | HCC 2998 > 100 µM | BT-549 > 100 µM | MOLT-4 > 100 µM | SNB-19 > 100 µM | OVCAR-3 > 100 µM | SW-620 > 100 µM

CCN(CC)C(=O)N[C@@H](Cc1ccccc1)C(=O)NC
inactive: CCRF-CEM > 100 µM | 786-0 > 100 µM | A498 > 100 µM | NCI-H23 > 100 µM | HT-29 > 100 µM | SNB-75 > 100 µM | SK-MEL-28 > 100 µM | SK-OV-3 > 100 µM | KM12 > 100 µM | RPMI-8226 > 100 µM | ACHN > 100 µM | SK-MEL-5 > 100 µM | HCC 2998 > 100 µM | BT-549 > 100 µM | MOLT-4 > 100 µM | SNB-19 > 100 µM | OVCAR-3 > 100 µM | SW-620 > 100 µM

COc1c(-c2ccc3c(c2)OCO3)oc2cc3c(c(OC)c2c1=O)OCO3 [MELITERNATIN]
inactive: CCRF-CEM 30.8 µM | UACC-257 38.5 µM | 786-0 48.2 µM | A498 23.5 µM | NCI-H23 22.8 µM | HT-29 23.3 µM | SNB-75 16.3 µM | TK-10 25.5 µM | SK-MEL-28 38.1 µM | SK-OV-3 18.3 µM | KM12 25.5 µM | ACHN 22.3 µM | SK-MEL-5 18.4 µM | HCC 2998 26.9 µM | BT-549 12.8 µM | MOLT-4 > 100 µM | SNB-19 18.4 µM | OVCAR-3 22.4 µM | SW-620 25.1 µM

Cc1ccc(NC(=O)/C(=N/N(C)C)C(C2OC(=O)c3ccccc32)[N+](=O)[O-])cc1 (stereo not drawn)
inactive: CCRF-CEM > 100 µM | UACC-257 > 100 µM | 786-0 > 100 µM | A498 > 100 µM | NCI-H23 > 100 µM | HT-29 > 100 µM | SNB-75 > 100 µM | TK-10 > 100 µM | SK-MEL-28 > 100 µM | SK-OV-3 > 100 µM | KM12 > 100 µM | RPMI-8226 > 100 µM | ACHN > 100 µM | SK-MEL-5 > 100 µM | HCC 2998 > 100 µM | BT-549 > 100 µM | MOLT-4 > 100 µM | OVCAR-3 > 100 µM | SW-620 > 100 µM

CCC(=O)NC(NNS(=O)(=O)c1ccc(C)cc1)(C(F)(F)F)C(F)(F)F
inactive: CCRF-CEM 63.1 µM | UACC-257 52 µM | 786-0 > 100 µM | A498 > 100 µM | NCI-H23 48.9 µM | SNB-75 51.9 µM | TK-10 54.1 µM | SK-MEL-28 20.3 µM | SK-OV-3 64.3 µM | KM12 54.1 µM | RPMI-8226 54.3 µM | ACHN 49.9 µM | SK-MEL-5 50 µM | HCC 2998 > 10 µM | BT-549 29.7 µM | MOLT-4 80 µM | SNB-19 > 100 µM | OVCAR-3 > 10 µM | SW-620 33.7 µM
